Experimental data: US8754047B2, “Peptide compositions and methods of use” (The Research Foundation for the State University of New York, priority 2008, dated 2014)
Positions of bridges follow the written chain, without caps; N, C: chain ends. Residues, ends and D or L forms follow the SMILES beside them.

Experiments:
[1] = tested on: SW480 human colon cancer cells; test: In vitro cell viability assay by MTT / cell Titer-Glo, SW480
Protocol: (§1) 10,000 HT29 or SW480 human colon cancer cells, BxPC-3 human pancreatic cancer cells, and MCF7 and MDA-MB-231 breast cancer cells were obtained from American Type Culture Collection (ATTC), Manassas, Va., and were seeded in separate 96-well plates. After treatment with various concentrations (6.25 μM, 12.5 μM, 25 μM, 50 μM, 100 μM, or 200 μM) of test peptide for 24 h, cells were stained with MTT (3-(4,5-Dimethyl-2-thiazolyl)-2,5-diphenyl-2H-tetrazolium bromide, from Sigma-Aldrich) following the instructions of the manufacturer. Before dissolving MTT in SDS, the HT29 and SW480 cells were photographed using a digital camera connected with a phase-contrast microscope. (FIG. 2A1-8, and FIG. 2B1-6). Cells that are alive convert MTT into formazan in their active mitochondria and appear dark purple; dead cells are not stained by MTT and appear colorless.
(§2) The IC50 is the concentration of the test agent that inhibits cell growth by 50% at 24 hours of exposure. IC50s were determined using the MTT assay or using the cell Titer-Glo method and following the instructions of the manufacturer ([…]). […] (Sun, Y., and Rigas, B., (2008), Cancer Res., 68(20): 8269-8277).
The effect of peptide YJB02 on SW480 colon cancer cells was compared to the effect of peptide YJB02 on the normal human colon epithelial cell line NCM460. […] The viability was determined as described in Example 2.

[2] = tested on: BxPC-3 human pancreatic cancer cells; settings: read-out: IC50s, BxPC3; inhibits cell growth by 50% at 24 hours of exposure; MTT or cell Titer-Glo
Protocol: as §1, §2

[3] = tested on: MCF7 breast cancer cells; settings: read-out: IC50s, MCF7; inhibits cell growth by 50% at 24 hours of exposure; MTT or cell Titer-Glo
Protocol: as §1, §2

[4] = tested on: MDA-MB-231 breast cancer cells; settings: read-out: IC50s, MDA-MB-231; inhibits cell growth by 50% at 24 hours of exposure; MTT or cell Titer-Glo
Protocol: as §1, §2

[5] = tested on: SW480 human colon cancer xenografts; test: SW480 human colon cancer xenografts in nude mice, tumor volume; format: in vivo; settings: 500 μg/day intraperitoneally for 19 days
Protocol: (§3) Xenografts were generated as described in FIG. 3A-B and Example 3 except where noted. Each animal had two xenografts, one on its right flank and one on the left. In these studies, the effect of two doses of YJB01, 100 μg and 500 μg per animal were evaluated. The doses were administrated intraperitoneally once a day dissolved in phosphate buffered saline (PBS). Control animals were injected with PBS. Tumor volume was determined as described in Example 3. Tumor volume is expressed as mean±SEM.
as §3, with “the” for “FIG. 3A-B and”
Xenografts were generated as described in the Example 3 except that 8 Balb/c nude mice in each group were used in this experiment. Nude mice bearing SW480 xenografts were treated with 500 μg/day of YJB02 for 19 days. The doses were administrated intraperitoneally once a day dissolved in phosphate buffered saline (PBS). Control animals were treated with PBS.
Tumor volume was determined as described in Example 3. Tumor volume was monitored and graphed as set forth in FIG. 9A, and is expressed as mean±SEM.

[6] = tested on: SW480 tumor cells; test: TUNEL staining of xenograft tumor tissue for apoptosis; format: in vivo, nude mice; settings: tumors of mice treated 500 μg/day for 19 days
Protocol: (§4) Tumor tissue from the mice treated with PBS or YJB02 as described in Example 8 were utilized in this experiment. Cell death was determined by terminal deoxynucleotidyl transferase dUTP nick end labeling (TUNEL) staining sections of paraffin embedded tissues, as previously described (Ouyang, N., Williams, J. L., Tsioulias, G. J., Gao, J., Iatropoulos, M. J., Kopelovich, L., Kashfi, K., and Rigas, B. 2006. Nitric oxide-donating aspirin prevents pancreatic cancer in a hamster tumor model. Cancer Res 66:4503-4511). Cell proliferation was determined by staining sections of paraffin embedded tissues for Ki-67 (Santa Cruz Biotechnology, Calif.) as previously described (Id.)
Slides were stained with TUNEL kit for apoptosis (available from Roche Applied Science, Indianapolis, Ind., US).

[7] = tested on: SW480 tumor cells; test: Ki-67 staining of xenograft tumor tissue for cell proliferation; format: in vivo, nude mice; settings: tumors of mice treated 500 μg/day for 19 days
Protocol: as §4
Tissue slides from control or YJB02 treated tumors were stained with anti-Ki67 antibody (Santa Cruz Biotechnology, Santa Cruz, Calif., US). As shown in the lower panel of FIG. 10, YJB02 inhibited tumor cell proliferation. […] Slides were counter-stained with hematoxylin.

[8] = target: T1, thioredoxin reductase (Rattus norvegicus, UniProt O89049)
T1 sequence (O89049 1-499): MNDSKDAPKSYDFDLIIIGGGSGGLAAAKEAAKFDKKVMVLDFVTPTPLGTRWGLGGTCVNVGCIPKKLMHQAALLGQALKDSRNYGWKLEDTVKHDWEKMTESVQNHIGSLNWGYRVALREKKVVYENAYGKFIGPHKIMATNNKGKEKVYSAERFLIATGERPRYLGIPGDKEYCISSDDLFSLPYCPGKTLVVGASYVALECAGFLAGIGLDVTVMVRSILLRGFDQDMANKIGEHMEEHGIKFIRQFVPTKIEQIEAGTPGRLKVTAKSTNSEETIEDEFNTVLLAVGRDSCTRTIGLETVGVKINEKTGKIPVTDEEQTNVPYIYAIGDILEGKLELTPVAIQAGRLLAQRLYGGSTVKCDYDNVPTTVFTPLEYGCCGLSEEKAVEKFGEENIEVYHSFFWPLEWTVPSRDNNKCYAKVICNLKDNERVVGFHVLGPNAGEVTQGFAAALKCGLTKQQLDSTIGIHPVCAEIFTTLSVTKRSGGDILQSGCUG
Protocol: (§5) The activity was determined based on the change in absorbance (ΔA412) per minute (ΔA412/min).

[9] = in vitro; settings: human, NCM460 normal colon epithelial cells
Protocol: After treatment with various concentrations (6.25 μM, 12.5 μM, 25 μM, 50 μM, 100 μM, or 200 μM) of test peptide for 24 h, cells were stained with MTT (3-(4,5-Dimethyl-2-thiazolyl)-2,5-diphenyl-2H-tetrazolium bromide, from Sigma-Aldrich) following the instructions of the manufacturer. […] Cells that are alive convert MTT into formazan in their active mitochondria and appear dark purple; dead cells are not stained by MTT and appear colorless.

[10] = target: T1, thioredoxin reductase; test: biochemical
Protocol: as §5

SMILES: CC[C@H](C)[C@H](NC(=O)[C@H](CCCCN)NC(=O)[C@@H](NC(=O)[C@H](CCC(N)=O)NC(=O)[C@H](CCCNC(=N)N)NC(=O)[C@@H]1CCCN1C(=O)[C@@H](NC(=O)[C@@H]1CSSC[C@H](NC(=O)[C@@H](NC(=O)CN)[C@@H](C)O)C(=O)N[C@@H](C(C)C)C(=O)N[C@@H](CC(N)=O)C(=O)N[C@@H](C(C)C)C(=O)NCC(=O)N1)[C@@H](C)CC)[C@@H](C)CC)C(=O)N[C@@H](Cc1c[nH]c2ccccc12)C(=O)N[C@@H](Cc1ccccc1)C(=O)N[C@@H](CCC(N)=O)C(=O)N[C@@H](CC(N)=O)C(=O)N[C@@H](CCCNC(=N)N)C(=O)N[C@@H](CCCNC(=N)N)C(=O)N[C@@H](CCSC)C(=O)N[C@@H](CCCCN)C(=O)N[C@@H](Cc1c[nH]c2ccccc12)C(=O)N[C@@H](CCCCN)C(=O)N[C@@H](CCCCN)C(=O)O [YJB02] (H-GTCVNVGCIPRQIKIWFQNRRMKWKK-OH; disulfide 3-8; N-terminus and C-terminus assumed)
- SW480 cells remained viable ([1]; 200 μmol/L, 24-hour treatment): 20%
- IC50 ([1]; read-out: IC50s, SW480, inhibits cell growth by 50% at 24 hours of exposure, MTT or cell Titer-Glo): < 12.5 µM
- IC50 [2]: 36 to 76 µM
- IC50 [3]: 213 µM
- IC50 [4]: 243 µM
- tumor volume ([5]; day 19, control 635 mm^3): 207 mm^3
- reduction in SW480 tumor growth ([5]; vs control): 67%
- TUNEL (+) cells in tumor tissue [6]: induced more TUNEL (+) cells than control tumors
- Ki67 (+) signals in tumor tissue [7]: dramatically decreased
- thioredoxin reductase activity, ΔA412/min [8]: decreased by YJB02 in a dose dependent manner
- viability at 24 h, 200 μmol/L [9]: 75%
- IC50 [10]: 0.036 µM
